Results taken from patent US10603335B2, “Cancer treatment combination compositions, methods and uses” (Board of Supervisors of Louisiana State University and …, priority 2016, dated 2020).

Key:
[1] = Body weight of tumor-bearing mice during treatment; conditions: IP
Protocol: Male SCID/bg mice (5 weeks old; Taconic Biosciences, NY) were housed in the standard mouse Plexiglas cages in a room maintained at constant temperature and humidity under a 12 h light and darkness cycle. The experimental protocol was reviewed and approved by the Institutional Animal Care and Use Committee at the LSUHSC Shreveport.
The vehicle treated group received an equivalent amount of PBS. Tumor volumes were measured with calipers once a week and body weights of mice were measured once a week. Tumor volumes were calculated by the formula: V(mm3)=(length×width*2)/2, in which width was the shortest measurement in millimeters. Mice were necropsied 10 days after the last treatment for the low dose treatment (day 35 after the randomization and day 55 from the tumor cell implantation) or 2 days after the last treatment for high dose treatment (day 28 after the randomization and 48 from the tumor cell implantation). Tumors were dissected, weighed and photographed.

[2] = system: cleaved PARP, XIAP and cIAP2 in BxPC-3 cells; assay: Western blot of apoptosis markers and inhibitors of apoptosis, BxPC-3; format: cell-based; conditions: for XIAP and c-IAP2 protein levels: 24 h; for apoptosis marker cleaved PARP: 24 h post-treatment, LHRH-curcumin 10-100 uM, gemcitabine 1-20 uM
Protocol: (§1) Pancreatic cells were collected after trypsinization and seeded in 12-well plates for 24 h before treatments. Treatments were performed as described in the Figure legends. Following treatment, whole cell lysates were collected in Laemmli buffer and analyzed by Western blot. The following primary antibodies were used: XIAP, c-IAP2, cleaved PARP, Caspase-3 (all from Cell Signaling), actin (Santa Cruz) and LHRHR (Abcam).
(§2) Western blot analysis. Actin, GAPDH and Ponceau staining were used as loading controls. Gemcitabine was diluted in water. Curcumin and LHRH-curcumin were diluted in DMSO. Cells were treated as follows:
(§3) Western blot analysis. Actin, GAPDH and Ponceau staining were used as loading controls. Gemcitabine was diluted in water. Curcumin and LHRH-curcumin were diluted in DMSO.

[3] = system: TGFβ pathway genes in PATC53 pancreatic cancer cells; assay: Quantitative PCR of TGFβ pathway genes, PATC53; format: cell-based; conditions: TGFβ 100 ng/ml, LHRH-curcumin 20 μM and 50 μM
Protocol: GAPDH was used as a reference.
mRNA levels of Smad3, SNAI1, SNAI2, TGFBRI, TGFBRII, GADD45 and XIAP were determined by quantitative real-time PCR using the Roche Universal Library Probe protocol. Thermal cycling was carried out using the LightCycler96 system from Roche under the following conditions: 95° C. for 10 min and 40 cycles at 95° C. for 15 s and 55° C. for 60 s. mRNA expression for any given gene is represented as comparative to the control-treated cells. GAPDH was used as the housekeeping gene of reference.

PATX193 tissue slices = assay: Live Tissue Sensitivity Assay (LTSA), PATX193; format: cell-based; conditions: 72 hours
Protocol: (§4) Animal experiment protocol was reviewed and approved by The University of Texas MD Anderson Cancer Center (Houston, Tex.) institutional review board and in accordance with the Guidelines for the Care and Use of Laboratory Animals published by the National Institutes of Health. PDXs were grown from cryopreserved early passages of PDXs in nude mice as described in previous publications (Kim M P, et al, Nat Protoc 2009; 4(11): 1670-80). Briefly, tumor samples stored in CryoStor™ CS10 storage medium were recovered and cut into about 2 mm3 fragments, soaked in Matrigel, and implanted into the subcutaneous space of Balb/c nude mice (5 mice/PDX). Tumors were harvested when they reach 1.5 cm in diameter for generating tissue slices for drug testing with quadruplicates.
(§5) About 100 tissue slices were produced from 1 tumorgraft with tissue slicer and arrayed in 96-well plates with previously established method (Roife D, et al, Clin Cancer Res 2016). […] Same volume of medium with 0.1% DMSO was added into control wells. After 72 hours, tissue viabilities were measured with PrestoBlue method. Viability inhibition will be calculated through normalization of viabilities of tissue slices treated with inhibitor against the viability of control (DMSO treated) slices. Inhibition of viability was further analyzed with t-test. […]

[4] = system: cleaved PARP, XIAP and cIAP2 in AsPC-1 cells; assay: Western blot of apoptosis markers and inhibitors of apoptosis, AsPC-1; format: cell-based; conditions: for XIAP and c-IAP2 protein levels: 24 h; for apoptosis marker cleaved PARP: 24 h post-treatment, LHRH-curcumin 10-100 uM, gemcitabine 1-20 uM
Protocol: as §1, §2, §3

PATX176 tissue slices = assay: Live Tissue Sensitivity Assay (LTSA), PATX176; format: cell-based; conditions: 72 hours
Protocol: as §4, §5

Panc-1 cells spheroids = assay: 3D spheroid growth (IncuCyte ZOOM), Panc-1; format: cell-based
Protocol: (§6) A protocol that enables the growth of identical size single cancer cell spheroids in Matrigel in 96 well plates has been developed.
(§7) Panc-1 and Mia-Paca-2 cells were grown in 10% FBS DMEM. Cells were collected after trypsinization and resuspended in phenol-red free DMEM with 10% FBS. Cells were labeled with CellTracker Red (Life Techmologies) for 5 minutes. After labeling cells were washed with PBS and transfer into 96-well Corning 7007 ULA round bottom plates at 1,000 cells/well in 100 μl phenol-red free media with 10% FBS and 5% Matrigel. […] Spheroids were grown at 37° C. and 5% CO2 in IncuCyte ZOOM (Essen Bioscience). Images were acquired every 4 h for a period of 120 h post-treatment and software analysis was design to identify the red object in the well. The data were expressed as fold increase in spheroids size at the end of the treatment using the “average red object area in the well” as determined by the IncuCyte software analysis. Reproducibility was confirmed in three independent experiments. Spheroids grew at a uniform rate (FIG. 1).

Mia-PaCa-2 spheroids = assay: 3D spheroid growth (IncuCyte ZOOM), Mia-PaCa-2; format: cell-based, human; conditions: for size of the spheroids: MiaPaca-2, gemcitabine 0.5, 1.0, 5.0 μM, LHRH-curcumin 10, 20 μM, 5 days
Protocol: as §6, §7

PATX153 tissue slices = assay: Live Tissue Sensitivity Assay (LTSA), PATX153; format: cell-based; conditions: 72 hours
Protocol: as §4, §5

PATX148 tissue slices = assay: Live Tissue Sensitivity Assay (LTSA), PATX148; format: cell-based; conditions: 72 hours
Protocol: as §4, §5

PATX112 tissue slices = assay: Live Tissue Sensitivity Assay (LTSA), PATX112; format: cell-based; conditions: 72 hours
Protocol: as §4, §5

PATX118 tissue slices = assay: Live Tissue Sensitivity Assay (LTSA), PATX118; format: cell-based; conditions: 72 hours
Protocol: as §4, §5

[5] = system: cleaved PARP, XIAP and cIAP2 in Panc-1 cells; assay: Western blot of apoptosis markers and inhibitors of apoptosis, Panc-1; format: cell-based; conditions: for apoptosis marker cleaved PARP: 24 h post-treatment, LHRH-curcumin 10-100 uM, gemcitabine 1-20 uM
Protocol: as §1, §2
Western blot analysis. Actin, GAPDH and Ponceau staining were used as loading controls. Gemcitabine was diluted in water. Curcumin and LHRH-curcumin were diluted in DMSO. The cells were treated as follows:
Western blot analysis. Actin was used as loading control. Both gemcitabine and LHRH-curcumin were diluted in water.

[6] = high doses: gemcitabine 100 mg/kg once a week, LHRH-curcumin 40 mg/kg twice a week
[7] = low doses: gemcitabine 50 mg/kg once a week, LHRH-curcumin 20 mg/kg twice a week
[8] = 50 uM in the presence of gemcitabine (5 uM)
[9] = curcumin, LHRH-curcumin 50 uM and 100 uM alone, gemcitabine alone
[10] = gemcitabine 0.5, 1.0, 5.0 μM, LHRH-curcumin 10, 20 μM, 5 days
[11] = 24 h, curcumin, LHRH-curcumin 50 uM and 100 uM alone, gemcitabine alone

## COc1cc(/C=C/C(=O)CC(=O)/C=C/c2ccc(OC(=O)CCCC(=O)NCCCC[C@@H](NC(=O)[C@H](Cc3ccc(O)cc3)NC(=O)[C@H](CO)NC(=O)[C@H](Cc3c[nH]c4ccccc34)NC(=O)[C@H](Cc3c[nH]cn3)NC(=O)[C@@H]3CCC(=O)N3)C(=O)N[C@@H](CC(C)C)C(=O)N[C@@H](CCCNC(=N)N)C(=O)N3CCC[C@H]3C(=O)NCC(N)=O)c(OC)c2)ccc1O [LHRH-curcumin, [DLys6]-LHRH-Curcumin]
[1]; [6]
  body weight or body condition: does not negatively impact body weight or body condition
[1]; [7]
  body weight or body condition: does not negatively impact body weight or body condition
[2]; [8]
  XIAP and c-IAP2 protein levels: down-regulated
[2]; [9]
  XIAP and c-IAP2 protein levels: down-regulated
[2]; curcumin
  apoptosis marker cleaved PARP: initiate apoptosis as illustrated by the presence of cleaved PARP
[3]
  mRNA levels of GADD45 and XIAP: affected
[3]; 24 h and 48 h
  mRNA levels of TGFβ signaling genes (SMAD3, SNAI1, SNAI2, TGFBRI, TGFBRII): down-regulated
PATX193 tissue slices; single agent
  Sensitivity To LHRH-C: Sensitive (The tissue was defined as sensitive to the treatment if both p<0.05 and at least 30% of tissue slice viability on average was inhibited)
[4]; [8]
  XIAP and c-IAP2 protein levels: down-regulated
[4]; [9]
  XIAP and c-IAP2 protein levels: down-regulated
[4]; curcumin
  apoptosis marker cleaved PARP: initiate apoptosis as illustrated by the presence of cleaved PARP
PATX176 tissue slices; single agent
  Sensitivity To LHRH-C: Resistant
Panc-1 cells spheroids; 3D culture, 10, 20 and 30 μM, 120 h
  effectiveness on spheroids growth versus curcumin: more effective than curcumin
Panc-1 cells spheroids; 10, 20 and 30 μM, 120 h post-treatment
  size of the spheroids: significantly decreased the size of the spheroids formed by Panc-1 cells in a dose-dependent manner
Panc-1 cells spheroids; LHRH 30 μM, LHRH-curcumin 30 μM
  spheroids growth: superior to that of LHRH
Panc-1 cells spheroids; [10]
  size of the spheroids: decrease the size of the spheroids
Mia-PaCa-2 spheroids; 10, 20 and 30 μM, 120 h
  efficiency on spheroids growth, Panc-1 versus Mia-PaCa-2: more efficient on Panc-1 cells than Mia-PaCa-2 cells
Mia-PaCa-2 spheroids
  size of the spheroids: decrease the size of the spheroids
PATX153 tissue slices; single agent
  Sensitivity To LHRH-C: Sensitive (The tissue was defined as sensitive to the treatment if both p<0.05 and at least 30% of tissue slice viability on average was inhibited)
PATX148 tissue slices; single agent
  Sensitivity To LHRH-C: Resistant
PATX112 tissue slices; single agent
  Sensitivity To LHRH-C: Sensitive (The tissue was defined as sensitive to the treatment if both p<0.05 and at least 30% of tissue slice viability on average was inhibited)
PATX118 tissue slices; single agent
  Sensitivity To LHRH-C: Resistant
[5]; 24 h, 50 uM in the presence of gemcitabine (5 uM)
  XIAP and c-IAP2 protein levels: down-regulated
[5]; [11]
  XIAP and c-IAP2 protein levels: down-regulated
[5]; curcumin
  apoptosis marker cleaved PARP: initiate apoptosis as illustrated by the presence of cleaved PARP
[5]; 72 h, LHRH-curcumin 10 uM and 20 uM in the presence of gemcitabine (5 uM and 10 uM)
  XIAP and c-IAP2 protein levels: down-regulated

## Nc1ccn([C@@H]2O[C@H](CO)[C@@H](O)C2(F)F)c(=O)n1 [gemcitabine, 2′,2′-difluoro 2′deoxycytidine, reference compound]
[1]; [6]
  body weight or body condition: does not negatively impact body weight or body condition
[1]; [7]
  body weight or body condition: does not negatively impact body weight or body condition
[2]; [9]
  XIAP and c-IAP2 protein levels: doesn't affect XIAP and c-IAP2 levels
[2]; curcumin
  apoptosis marker cleaved PARP: Low levels of cleaved PARP was detected
PATX193 tissue slices; Gem 10 μM
  tissue slice viability: 92.70
[4]; [9]
  XIAP and c-IAP2 protein levels: doesn't affect XIAP and c-IAP2 levels
[4]; curcumin
  apoptosis marker cleaved PARP: Low levels of cleaved PARP was detected
PATX176 tissue slices; Gem 10 μM
  tissue slice viability: 88.23
Panc-1 cells spheroids; [10]
  size of the spheroids: decrease the size of the spheroids
Mia-PaCa-2 spheroids
  size of the spheroids: decrease the size of the spheroids
PATX153 tissue slices; Gem 10 μM
  tissue slice viability: 96.86
PATX148 tissue slices; Gem 10 μM
  tissue slice viability: 99.55
PATX112 tissue slices; Gem 10 μM
  tissue slice viability: 91.71
PATX118 tissue slices; Gem 10 μM
  tissue slice viability: 97.56
[5]; [11]
  XIAP and c-IAP2 protein levels: doesn't affect XIAP and c-IAP2 levels
[5]; curcumin
  apoptosis marker cleaved PARP: no cleaved PARP was detected
